From patent US12448394B2, “Heterocyclic pyrazole derivatives as type III receptor tyrosine kinase inhibitors” (DEVELOPMENT CENTER FOR BIOTECHNOLOGY, priority 2019, dated 2025)

Assays:
PDGFRα kinase = molecular target: T1, PDGFRα kinase (Homo sapiens, UniProt P16234); assay: PDGFRα kinase assay (AlphaScreen); assay type: biochemical; settings: read-out: Ranking of IC50 values, PDGFRα
T1 construct: purchased SignalChem
Summary of the method: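 IC50 values came from duplicate serial dilutions, with product read by AlphaScreen. The reaction ran 30 min at 30 °C, then EDTA stop: 1.5 ng recombinant enzyme, biotin-poly(Glu4:Tyr1) substrate, 10 μM ATP, 10 mM MOPS pH 7.0, 10 mM MgCl2.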

MET kinase = molecular target: T2, MET kinase (Homo sapiens, UniProt P08581); assay: MET kinase assay (AlphaScreen, counter screen); assay type: biochemical; settings: read-out: Ranking of IC50 values, MET
T2 construct: purchased SignalChem
T2 sequence (P08581 25-1390): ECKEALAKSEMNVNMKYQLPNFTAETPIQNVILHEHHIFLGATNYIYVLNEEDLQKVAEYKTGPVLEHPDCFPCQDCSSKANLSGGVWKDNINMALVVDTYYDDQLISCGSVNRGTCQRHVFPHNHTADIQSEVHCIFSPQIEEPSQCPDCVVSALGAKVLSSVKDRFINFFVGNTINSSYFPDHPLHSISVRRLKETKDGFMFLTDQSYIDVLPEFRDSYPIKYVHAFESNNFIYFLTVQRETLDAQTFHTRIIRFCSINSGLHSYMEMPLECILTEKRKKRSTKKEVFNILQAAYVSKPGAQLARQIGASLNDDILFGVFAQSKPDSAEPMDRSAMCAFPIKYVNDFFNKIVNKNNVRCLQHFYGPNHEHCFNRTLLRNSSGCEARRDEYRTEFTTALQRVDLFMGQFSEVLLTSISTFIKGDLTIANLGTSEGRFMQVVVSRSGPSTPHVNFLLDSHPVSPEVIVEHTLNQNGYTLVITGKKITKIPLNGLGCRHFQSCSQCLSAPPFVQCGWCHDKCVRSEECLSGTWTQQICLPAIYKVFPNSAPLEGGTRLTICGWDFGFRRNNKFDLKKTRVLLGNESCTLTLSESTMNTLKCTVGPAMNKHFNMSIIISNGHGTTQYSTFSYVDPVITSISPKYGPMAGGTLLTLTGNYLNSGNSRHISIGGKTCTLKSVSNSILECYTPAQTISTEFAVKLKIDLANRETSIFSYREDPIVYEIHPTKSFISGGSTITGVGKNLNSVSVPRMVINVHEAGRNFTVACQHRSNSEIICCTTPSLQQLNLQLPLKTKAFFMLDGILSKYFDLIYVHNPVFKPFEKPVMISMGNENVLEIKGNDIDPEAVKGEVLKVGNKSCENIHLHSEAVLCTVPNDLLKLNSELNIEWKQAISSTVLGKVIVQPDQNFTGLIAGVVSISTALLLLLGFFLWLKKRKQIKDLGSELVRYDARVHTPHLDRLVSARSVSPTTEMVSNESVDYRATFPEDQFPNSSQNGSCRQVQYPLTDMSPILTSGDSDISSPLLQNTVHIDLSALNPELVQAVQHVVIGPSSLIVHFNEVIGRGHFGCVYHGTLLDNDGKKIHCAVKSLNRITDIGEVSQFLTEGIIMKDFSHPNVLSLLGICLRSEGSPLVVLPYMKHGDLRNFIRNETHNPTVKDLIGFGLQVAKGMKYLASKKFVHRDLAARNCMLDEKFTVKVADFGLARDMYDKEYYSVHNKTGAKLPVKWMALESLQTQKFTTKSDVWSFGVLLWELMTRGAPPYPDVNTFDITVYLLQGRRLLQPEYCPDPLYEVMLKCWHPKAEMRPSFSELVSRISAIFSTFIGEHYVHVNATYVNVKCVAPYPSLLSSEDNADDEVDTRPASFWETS
Summary of the method: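 IC50 came from duplicate serial dilutions, with AlphaScreen detection of phosphorylated biotin-poly(Glu4:Tyr1). The reaction used 1 ng recombinant MET, 10 µM ATP […], and MOPS pH 7.0/MgCl2 buffer, ran 45 min at 30 °C, and was quenched with EDTA.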

[1] = system: MV4-11 human acute myeloid leukemia cell with FLT3-ITD mutation; assay: MV4-11 cell proliferation assay (CellTiter 96); assay type: cell-based; settings: Homo sapiens, MV4-11, 72 h, MV4-11 cells, 72 hours treatment, CellTiter96; read-out: anti-proliferation activity MV4-11 (FLT3-ITD), IC50 ranking
Summary of the method: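 Cells seeded at 6500/well in IMDM with 10% heat-inactivated FBS, left overnight at 37 °C, 5% CO2, then exposed to increasing compound concentrations for 72 h. Viability read as absorbance at 490 nm after 2–4 h with CellTiter96 AQueous One reagent.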

[2] = system: THP-1 human acute monocytic leukemia cell with NRAS G12D mutation; assay: THP-1 cell proliferation assay (counter screen); assay type: cell-based; settings: Homo sapiens, THP-1 cells, 72 hours treatment, CellTiter96, read-out: anti-proliferation activity THP-1 NRAS N12D, IC50 ranking
Summary of the method: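 Viability measured as 490 nm absorbance after 2–4 h with CellTiter96 AQueous One reagent, following 72 h treatment with rising compound concentrations. THP-1 cells, 5000/well, grown in RPMI 1640 with 10% FBS and 0.05 mM 2-mercaptoethanol at 37° C, 5% CO2, plated overnight before dosing.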

[3] = system: A375 melanoma cell with BRAF V600E mutation; assay: A375 cell proliferation assay (counter screen); assay type: cell-based, human; settings: Homo sapiens, A-375, A375 cells, 72 hours treatment, CellTiter96, read-out: anti-proliferation activity A375 BRAF V600E, IC50 ranking
Summary of the method: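 A375 cells (BRAF V600E) seeded at 2000 cells/well in DMEM with 10% FBS, settled overnight at 37° C, 5% CO2, then exposed to increasing compound concentrations for 72 hours. Viability read by MTS-type CellTiter96 AQueous reagent, absorbance at 490 nm after 2–4 hours.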

[4] = system: HCC827 NSCLC cell with EGFR exon 19 deletion mutation; assay: HCC827 cell proliferation assay (counter screen); assay type: cell-based, human; settings: Homo sapiens, HCC827 cells, 72 hours treatment, CellTiter96, read-out: anti-proliferation activity HCC827 EGFR Exon19 del, IC50 ranking
Summary of the method: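 HCC827 cells (EGFR exon 19 deletion) were seeded at 8000 cells/well in RPMI1640 with 10% FBS, then exposed to increasing compound concentrations for 72 h at 37 °C. Viability was read by CellTiter96 AQueous One (MTS), absorbance 490 nm after 2–4 h.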

T1 sequence (P16234 24-1089): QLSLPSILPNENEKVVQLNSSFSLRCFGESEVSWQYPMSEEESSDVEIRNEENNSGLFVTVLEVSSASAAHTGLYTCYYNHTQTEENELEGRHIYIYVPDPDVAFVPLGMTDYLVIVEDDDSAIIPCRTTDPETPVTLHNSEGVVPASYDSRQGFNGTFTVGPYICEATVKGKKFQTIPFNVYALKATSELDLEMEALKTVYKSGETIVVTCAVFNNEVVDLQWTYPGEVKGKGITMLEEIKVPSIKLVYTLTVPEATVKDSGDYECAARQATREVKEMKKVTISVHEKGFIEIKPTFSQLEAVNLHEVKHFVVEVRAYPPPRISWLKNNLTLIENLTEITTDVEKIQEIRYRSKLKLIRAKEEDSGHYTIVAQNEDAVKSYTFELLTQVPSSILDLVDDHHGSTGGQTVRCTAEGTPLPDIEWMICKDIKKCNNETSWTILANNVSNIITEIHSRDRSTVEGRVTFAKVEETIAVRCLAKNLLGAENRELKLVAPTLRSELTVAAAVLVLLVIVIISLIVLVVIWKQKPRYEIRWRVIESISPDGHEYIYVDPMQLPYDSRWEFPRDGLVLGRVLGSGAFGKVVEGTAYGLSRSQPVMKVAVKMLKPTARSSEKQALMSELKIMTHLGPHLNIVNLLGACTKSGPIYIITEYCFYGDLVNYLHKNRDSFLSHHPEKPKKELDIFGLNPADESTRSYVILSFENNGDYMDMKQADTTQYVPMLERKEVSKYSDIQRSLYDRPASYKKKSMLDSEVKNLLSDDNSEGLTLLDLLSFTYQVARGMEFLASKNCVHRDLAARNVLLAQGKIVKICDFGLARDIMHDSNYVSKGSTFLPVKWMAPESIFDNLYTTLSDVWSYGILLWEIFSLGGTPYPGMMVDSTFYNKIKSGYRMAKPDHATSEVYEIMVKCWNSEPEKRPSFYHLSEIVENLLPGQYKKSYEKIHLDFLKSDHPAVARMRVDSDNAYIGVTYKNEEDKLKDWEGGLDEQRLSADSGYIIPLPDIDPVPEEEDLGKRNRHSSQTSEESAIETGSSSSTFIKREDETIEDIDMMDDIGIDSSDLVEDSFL

| SMILES | IC50 (PDGFRα kinase) | IC50 (MET kinase) | IC50 [1] | IC50 [2] | IC50 [3] | IC50 [4] |
| --- | --- | --- | --- | --- | --- | --- |
| COc1ccc(-c2cc3c(s2)Cc2c(-c4ccc5[nH]ncc5c4)n[nH]c2-3)cn1 [Compound 1, 3-(1H-indazol-5-yl)-6-(6-methoxypyridin-3-yl)-1,4-dihydrothieno[2′,3′:4,5] cyclopenta[1,2-c]pyrazole] | 10 to 30 nM | > 1000 nM | 30 to 100 nM | > 10 µM | > 10 µM | > 10 µM |
| COc1ccc(-c2cc3c(s2)Cc2c(-c4ccc5cn[nH]c5c4)n[nH]c2-3)cn1 [Compound 2, 3-(1H-indazol-6-yl)-6-(6-methoxypyridin-3-yl)-1,4-dihydrothieno[2′,3′:4,5] cyclopenta[1,2-c]pyrazole] | 10 to 30 nM | > 1000 nM | 30 to 100 nM | > 10 µM | > 10 µM | > 10 µM |
| Nc1ccc(-c2cc3c(s2)Cc2c(-c4ccc5cn[nH]c5c4)n[nH]c2-3)cn1 [Compound 3, 5-(3-(1H-indazol-6-yl)-1,4-dihydrothieno[2′,3′:4,5]cyclopenta[1,2-c]pyrazol-6-yl)pyridin-2-amine] | 1 to 10 nM | > 1000 nM | < 30 nM | > 10 µM | > 10 µM | > 10 µM |
| COc1ccc(-c2cc3c(s2)Cc2c(-c4ccc5cnn(C)c5c4)n[nH]c2-3)cn1 [Compound 4, 6-(6-methoxypyridin-3-yl)-3-(1-methyl-1H-indazol-6-yl)-1,4-dihydrothieno [2′,3′:4,5]cyclopenta[1,2-c] pyrazole] | 10 to 30 nM | > 1000 nM | 100 to 300 nM | > 10 µM | > 10 µM | > 10 µM |
| Cc1ccc(-c2cc3c(s2)Cc2c(-c4ccc5cn[nH]c5c4)n[nH]c2-3)cn1 [Compound 30, 3-(1H-indazol-6-yl)-6-(6-methylpyridin-3-yl)-1,4-dihydrothieno[2′,3′:4,5] cyclopenta[1,2-c]pyrazole] | 1 to 10 nM | > 1000 nM | 30 to 100 nM | > 10 µM | > 10 µM | > 10 µM |
| Cc1ccc(-c2cc3c(s2)Cc2c(-c4ccc5[nH]ncc5c4)n[nH]c2-3)cn1 [Compound 36, 3-(1H-indazol-5-yl)-6-(6-methylpyridin-3-yl)-1,4-dihydrothieno[2′,3′:4,5] cyclopenta[1,2-c]pyrazole] | 1 to 10 nM | > 1000 nM | < 30 nM | > 10 µM | > 10 µM | > 10 µM |
| Nc1ccc(-c2cc3c(s2)Cc2c(-c4ccc5[nH]ncc5c4)n[nH]c2-3)cn1 [Compound 40, 5-(3-(1H-indazol-5-yl)-1,4-dihydrothieno [2′,3′:4,5]cyclopenta [1,2-c]pyrazol-6-yl) pyridin-2-amine] | 1 to 10 nM | > 1000 nM | < 30 nM | 1 to 10 µM | 1 to 10 µM | 1 to 10 µM |
| Cn1ncc2ccc(-c3n[nH]c4c3Cc3sc(-c5ccc(CN6CCOC6=O)cc5)cc3-4)cc21 [Compound 62, 3-(4-(3-(1-methyl-1H-indazol-6-yl)-1,4-dihydro-thieno[2′,3′:4,5]cyclopenta [1,2-c]pyrazol-6-yl)benzyl)oxazolidin-2-one] | 10 to 30 nM | > 1000 nM | < 30 nM | > 10 µM | > 10 µM | > 10 µM |
| Cc1n[nH]c2cc(-c3n[nH]c4c3Cc3sc(-c5ccc(CN6CCOCC6)cc5)cc3-4)ccc12 [Compound 81, 4-(4-(3-(3-methyl-1H-indazol-6-yl)-1,4-dihydro-thieno[2′,3′:4,5]cyclopenta [1,2-c]pyrazol-6-yl)benzyl)morpholine] | 1 to 10 nM | > 1000 nM | 100 to 300 nM | 1 to 10 µM | 1 to 10 µM | > 10 µM |
